Patent US8119689B2, “Adjuvants on the basis of bisacyloxypropylcystene conjugates and derivatives and their uses in pharmaceutical compositions” (Helmholtz-Zentrum Fuer Infektionsforschung GmbH, priority 2005, dated 2012)

Key:
[1] = system: β-gal antigen-specific IgG isotypes; assay: β-gal-specific IgG isotypes in sera of immunized mice (isotype ELISA); type: in vivo; conditions: after intranasal and after parenteral administration
Experimental: FIG. 8: FIG. 8 provides the analysis of beta-Gal specific IgG isotypes in sera of immunized mice. Anti-beta-Gal specific IgG isotypes of the groups immunized with PBS, (control) beta-Gal+either BPPcysGlyc4armPEG or BPPcysPEG (FIG. 8A) or BPPcysAda or Ada alone (FIG. 8B), or beta-Gal alone of mice immunized by the i.n. or s.c. route were determined by ELISA. Results are expressed as end point titers. IgG titers represent the mean of five animals per experimental group. Differences were statistically significant at p<0.05 (*) with respect to mice receiving antigen alone. One representative out of four independent experiments is shown. SEM is indicated by vertical lines.
Isotyp ELISA: 96-well Nunc-Immuno MaxiSorp assay plates (Nunc, Roskilde, Denmark) were coated with 100 μl of β-gal (Boehringer, Mannheim, Germany) at 5 μg/ml in 0.05 M carbonate buffer (pH 8.2) per well. Serial two-fold dilutions of sera or lavages in PBS with 1% BSA and 0.05% Tween 20 were added (100 μl/well), and plates incubated for 2 h at 37° C. After washing, biotin-conjugated rat anti-mouse IgG1 or IgG2a (Pharmingen, Hamburg, Germany) were added to determine IgG subclasses. Plates were incubated for an additional 1 h at 37° C. After four washes, 100 μl of peroxidase-conjugated streptavidin (Pharmingen) was added to cells and plates incubated at 37° C. for 30 min. After four washes, reactions were developed with ABTS in 0.1 M citrate-phosphate buffer (pH 4.35) containing 0.01% H2O2. To determine the concentration of IgG subclasses in serum, standard curves were obtained by coating the wells with an isotype-specific goat anti-mouse IgG, and then by incubating with purified mouse IgG1 or IgG2a antibodies (Dianova, Hamburg, Germany).

[2] = system: primary bone marrow-derived dendritic cells; assay: In vitro stimulation of primary bone marrow-derived murine dendritic cells, surface markers by flow cytometry; type: cell-based, BALB/c mice; conditions: concentration enhanced to 100 ng/ml (not shown)
Experimental: FIG. 1: FIGS. 1A-1C show the results for In vitro studies using primary dendritic cells. Primary bone marrow-derived dendritic cell cultures were obtained from BALB/c mice by in vitro maturation of precursors using recombinant GM-CSF (5×10^4 U/ml). Mature dendritic cells were stimulated with 10 ng/ml of E. coli lypopolysaccharide (LPS) or 50 and 100 ng/ml of BPPcysGlyc4armPEG and BPPcysAda, respectively. Then, cells were double-labeled with antibodies specific for CD11c (dendritic cell marker) in combination with anti-CD40, anti-CD54, anti-CD80, anti-CD86, anti-MHC class 1, or anti-MHC class 11 antibodies. The expression of CD40, CD80, CD54, CD86, anti-MHC class 1, and MHC class 11 in CD11c-gated cells were analyzed by flow cytometry.
Experimental protocol: primary bone marrow-derived dendritic cell cultures were obtained from BALB/c mice following in vitro maturation of precursors in the presence of recombinant GM-CSF (5×10^4 U/ml), according to established protocols. Mature dendritic cells were stimulated with 10 ng/ml of E. coli lypopolysaccharide (LPS) or 5 ng/ml of BPPcysGlyc4armPEG, after 12, 24 and/or 48 h stimulation cells were analyzed by flow cytometry to assess the expression of surface markers which are relevant for their antigen presentation capacity.
In order to identify compounds which may have potential as adjuvants for in vivo applications in the vaccinology field, a first in vitro screening based on the used of primary cultures of bone marrow-derived dendritic cells was established. Dendritic cells were selected since they represent the most efficient antigen presenting cells and they play a key role by primary immune responses. In fact, they are the only cell type able to activate resting T cells initiating primary immune responses in vivo. Thus, dendritic cell cultures were treated with the tested moieties or LPS, which was used as a positive control. At different time intervals, samples were taken, stained with fluorescent-labeled antibodies specific for cellular markers critical for the antigen presenting capacities of dendritic cells, and analyzed by flow cytometry.
To test the stimulatory capacity of BPPCysAda on maturation and activation of bone marrow-derived DC, immature DC's were stimulated in vitro with BPPCysAda. Surface markers on CD11c+-gated DC were investigated by FACS analysis after 16 or 40 h pre-treatment.

[3] = system: peritoneal macrophages from C3H/HeJ mice; assay: Nitrogen monoxide release assay (macrophage activation); type: cell-based; conditions: 25 mM octylglucoside in first dilution step
Experimental: NO release of restimulated macrophages using different concentrations (serial dilutions) of the macrophage activator BPPcysGlyc4armPEG as adjuvant. As positive control, the NO release of macrophages in response to serial dilutions of Malp-2 and in response to 4armPEG molecules (negative control) are shown.
In brief, peritoneal macrophages from C3H/HeJ mice were used as the macrophage source. They were cultured in 96-well microtiter plates and stimulated simultaneously with rIFN-γ and a serial dilution of macrophage activator. Insofar as necessary (i.e. R-Malp-2/standard), the macrophage activators were dissolved in 25 mM octylglucoside in the first dilution step and then diluted further with medium. After an incubating time of 45-48 hours, the nitrate was reduced with nitrate reductase and the starting substance nitrogen monoxide was determined, as the sum of nitrate and nitrite, using Griess' reagent. 1 unit (U)/ml is defined as the dilution at which half-maximal stimulation takes place.

Molecule | antigen-specific antibody response [1] | differences in the expression of surface markers when concentration enhanced [2] | effect of adding a solubilizer (octylglucoside) on macrophage activation [3]
Nc1ncnc2c1ncn2[C@@H]1O[C@@H]2COP(=O)(O)O[C@H]3[C@@H](O)[C@H](n4cnc5c(N)ncnc54)O[C@@H]3COP(=O)(O)O[C@H]2[C@H]1O [c-diAMP] | strong antigen-specific antibody response |  | 
MALP-2 [reference compound] |  | No differences | required
